Source: patent publication US20250059162A1, “MULTI-PROTEIN DEGRADATION AGENT HAVING IMIDE SKELETON” (SUZHOU KINTOR PHARMACEUTICALS, INC., priority 2021, published 2025)

Key:
Format in all cases: cell-based
c-Myc protein = target: T1, c-Myc protein (Homo sapiens, UniProt P01106); experiment: c-Myc protein degradation in HL60 cells (Western blot); conditions: for remaining activity at 0.01 µM: HL-60, compound at 10 nM, 24 h, gray value relative to Ctrl (DMSO), read-out: Remaining amount of c-Myc protein (@10 nM/Ctrl)
T1 construct: degradation of myc and GSPT1 proteins in HL60 cells; endogenous in cells; host or cells: HL60
Description: (§1) HL60 cells in the exponential growth phase were digested and plated into a 6-well plate at 1×10^6 cells per well. The cell culture medium was RPMI-1640 (meilunbio, MA0215). After a day of adherent growth of the cells, the compound of the present invention was added as a test drug for culture, and proteins were extracted 24 h later (Ctrl meant adding only DMSO at the same volume).
(§2) In the 6-well plate, the culture medium RPMI-1640 (meilunbio, MA0215) was removed, and the cells were washed once with PBS, digested with trypsin, and centrifuged and collected separately into 1.5 mL centrifuge tubes. 100 μL of RIPA lysis buffer (containing 100 μM PMSF) was added to each tube, mixed thoroughly, allowed to stand on ice for 30 min and then centrifuged at 12000 rpm at 4° C. using a centrifuge for 20 min. The supernatant was used for Western blotting experiments. The sample can be stored at −80° C.
(§3) By using the BCA protein concentration determination kit (from Thermo Fisher, Cat. No. 23225), the BSA standard determination solution and the samples to be tested (the samples to be tested can be diluted and then tested) were prepared according to the table A below. Samples were added to the 96-well plate. Each well was supplemented with PBS to 20 μL, and then 200 μL of BCA working solution (prepared according to the kit) was added respectively and mixed evenly. The plate was placed at 60° C. for 10 min, and then the absorbance at 562 nm was detected. After the reading was recorded, a standard curve was plotted using concentration gradients of the standards, and the absorbance of the samples was substituted to calculate the protein concentration of the samples.
(§4) • 2.1 Protein denaturation: RIPA protein buffer (purchased from Solarbio, Cat. No. R0010) and 5× Loading Buffer (SDS, glycerin, bromophenol blue, TRIS) (purchased from Solarbio, Cat. No. P1040) were added, and the protein samples were denatured at 100° C. for 5 min. • 2.2 Sample loading and electrophoresis: 10% precast gel and the corresponding electrophoresis buffer were used. The same mass of protein sample and protein ladder (purchased from thermo, Cat. No. 26617) were loaded into each well, and electrophoresis at 200 V was performed for 30 min. • 2.3 […]: The gel was excised to remove the excess part. Transferring to PVDF membrane was performed by the wet transfer method (before use, it was necessary to activate the PVDF membrane with methanol for 1 min) at 300 mA for 2 h, during which a lot of heat was generated, and thus cooling with an ice box was required. • 2.4 Blocking: After the transferring, the PVDF membrane was placed in 5% skim milk and blocked with shaking at room temperature for 1 h. • 2.5 Incubating with primary antibody: The PVDF membrane was cut according to the molecular weight indicated on the marker and placed in c-myc (purchased from abcam, Cat. No. ab32072), or GSPT1 (purchased from abcam, Cat. No. ab234433), or CK1α (purchased from abcam, Cat. No. ab206652), or IKZF2 (purchased from proteintech, Cat. No. 13554-1-AP), and GAPDH (purchased from CST, Cat. No. #97166) primary antibodies. The antibodies were diluted with TBST buffer (a solution prepared from TRIS, KCL and NaCl and adjusted to pH 7.4 with hydrochloric acid, and Tween 20 was added) at a ratio of 1:1000, and blocked overnight on a shaker at 4° C. • 2.6 Incubating with secondary antibody: The PVDF membrane incubated with the primary antibody was washed with TBST for 3 times, each time for 10 min. After washing, the membrane was placed in the secondary antibody of the corresponding species, and incubated at room temperature in a shaker for 2 h. • 2.7 Washing membrane and exposure: After incubated with the secondary antibodies, the membrane was washed 3 times with TBST on a shaker, 10 minutes each time. […]

HL60 cells = experiment: Anti-proliferation on HL60 cells (CellTiter-Glo, 3 days); conditions: Homo sapiens, HL-60, 72 h, 3 days incubation, CTG luminescence, IC50 by XLfit, read-out: HL60 cells Proliferation inhibitory activity
Procedure, shortened: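 Log-phase cells were plated at 20000 cells/well and treated with compound dilutions in RPMI-1640 for 3 days, with 0.1% DMSO controls. Proliferation was read by CellTiter-Glo luminescence. IC50 was fitted from the inhibition rates.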

GSPT1 protein = target: T2, GSPT1 protein (Homo sapiens, UniProt P15170); experiment: GSPT1 protein degradation in HL60 cells (Western blot); conditions: for remaining GSPT1 protein at 0.01 µM: HL-60, compound at 10 nM, 24 h, gray value relative to Ctrl (DMSO), read-out: Remaining amount of GSPT1 protein (@10 nM/Ctrl)
T2 construct: degradation of myc and GSPT1 proteins in HL60 cells; endogenous in cells; host or cells: HL60
Description: as §1, §2, §3, §4

T2 sequence (P15170 whole entry): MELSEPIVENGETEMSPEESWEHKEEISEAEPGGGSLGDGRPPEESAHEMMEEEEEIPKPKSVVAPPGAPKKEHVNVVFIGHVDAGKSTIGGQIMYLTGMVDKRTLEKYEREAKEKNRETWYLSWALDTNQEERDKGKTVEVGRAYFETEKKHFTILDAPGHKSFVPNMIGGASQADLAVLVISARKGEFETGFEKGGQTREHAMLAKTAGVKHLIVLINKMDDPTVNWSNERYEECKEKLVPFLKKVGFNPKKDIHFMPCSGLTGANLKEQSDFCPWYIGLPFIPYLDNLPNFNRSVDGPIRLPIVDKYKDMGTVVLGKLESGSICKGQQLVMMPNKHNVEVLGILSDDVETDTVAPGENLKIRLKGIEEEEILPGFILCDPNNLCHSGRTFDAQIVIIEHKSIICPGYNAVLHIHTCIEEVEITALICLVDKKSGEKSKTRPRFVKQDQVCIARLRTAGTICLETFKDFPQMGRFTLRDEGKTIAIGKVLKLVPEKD
T1 sequence (P01106 whole entry): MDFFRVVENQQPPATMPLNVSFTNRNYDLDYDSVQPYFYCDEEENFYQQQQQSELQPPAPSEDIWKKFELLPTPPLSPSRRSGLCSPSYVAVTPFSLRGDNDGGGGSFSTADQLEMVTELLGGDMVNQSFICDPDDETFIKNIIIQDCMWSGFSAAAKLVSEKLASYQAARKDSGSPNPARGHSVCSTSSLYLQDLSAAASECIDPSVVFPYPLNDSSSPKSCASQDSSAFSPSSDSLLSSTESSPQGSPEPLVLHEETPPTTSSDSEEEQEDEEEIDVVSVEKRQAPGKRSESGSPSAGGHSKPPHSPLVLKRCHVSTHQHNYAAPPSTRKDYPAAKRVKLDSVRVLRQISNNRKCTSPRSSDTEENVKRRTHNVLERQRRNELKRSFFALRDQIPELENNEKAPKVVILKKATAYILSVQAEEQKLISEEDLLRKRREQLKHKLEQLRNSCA

| remaining activity at 0.01 µM (c-Myc protein) [%] | IC50 (HL60 cells) [nM] | remaining GSPT1 protein at 0.01 µM (GSPT1 protein) [%] | Degradation of GSPT1 protein in HL60 cells at 100 nM (FIG. 3, in words) (GSPT1 protein) | Compound | Degradation of c-Myc protein in HL60 cells at 300 nM (FIG. 2, FIG. 3, in words) (c-Myc protein) | Degradation of GSPT1 protein in HL60 cells at 300 nM (FIG. 2, FIG. 3, in words) (GSPT1 protein) |
| --- | --- | --- | --- | --- | --- | --- |
| 0 | 0.1 | 0 | – | Cc1cccc(-c2cnc(N3CCC(CNCc4ccc5c(c4)CN(C4CCC(=O)NC4=O)C5=O)CC3)c(C(F)(F)F)c2)c1 (centres unmarked) [Compound A94] | – | – |
| 0 | < 0.2 | 0 | – | COc1cccc(-c2cnc(N3CCC(CNCc4ccc5c(c4)CN(C4CCC(=O)NC4=O)C5=O)CC3)c(F)c2)c1 (centres unmarked) [Compound A112] | – | – |
| 104 | 1.1 | 10 | – | O=C1CCC(N2Cc3cc(CNCC4CCN(c5ncc(-c6ccc(Cl)cc6)cc5F)CC4)ccc3C2=O)C(=O)N1 (centres unmarked) [Compound A74] | – | – |
| 3 | 6.2 | 6 | – | O=C1CCC(N2Cc3cc(CNCC4CCN(c5ncc(-c6ccc(F)cc6)cc5F)CC4)ccc3C2=O)C(=O)N1 (centres unmarked) [Compound A109] | – | – |
| 11 | 0.6 | 0 | – | O=C1CCC(N2Cc3cc(CNCC4CCN(c5ncc(-c6cccc(Cl)c6)cc5F)CC4F)ccc3C2=O)C(=O)N1 (centres unmarked) [Compound A87] | – | – |
| 0 | 0.5 | 0 | – | O=C1CCC(N2Cc3cc(CNCC4CCN(c5cnc(-c6cccc(Cl)c6)cn5)CC4)ccc3C2=O)C(=O)N1 (centres unmarked) [Compound A102] | – | – |
| – | 35.8 | – | significantly degrade GSPT1 protein | O=C1CCC(N2Cc3cc(NCCC4CCN(c5ncc(-c6cccc(Cl)c6)cc5C(F)(F)F)CC4)ccc3C2=O)C(=O)N1 (centres unmarked) [Compound A131] | simultaneously degrade both GSPT1 and c-Myc proteins | simultaneously degrade both GSPT1 and c-Myc proteins |
| 50 | < 0.2 | 2 | – | COc1cc(-c2cccc(Cl)c2)cnc1N1CCC(CNCc2ccc3c(c2)CN(C2CCC(=O)NC2=O)C3=O)CC1 (centres unmarked) [Compound A77] | – | – |
| 19 | 2 | 25 | – | O=C1CCC(N2Cc3cc(CNCC4CCN(c5ncc(-c6cccc(F)c6)cn5)CC4)ccc3C2=O)C(=O)N1 (centres unmarked) [Compound A67] | – | – |
| 3 | < 0.2 | 0 | – | O=C1CCC(N2Cc3cc(CNCC4CCN(c5ncc(-c6cccc(C(F)(F)F)c6)cc5F)CC4)ccc3C2=O)C(=O)N1 (centres unmarked) [Compound A110] | – | – |
| 105 | 46.3 | 65 | – | O=C1C[C@H](N2Cc3cc(CNCC4CCN(c5ncc(-c6cccc(Cl)c6)cc5C(F)(F)F)CC4)ccc3C2=O)C(=O)N1 [Compound A169] | simultaneously degrade both GSPT1 and c-Myc proteins | significantly degrade GSPT1 protein |
| 6 | 1.5 | 0 | – | N#Cc1cc(-c2cccc(Cl)c2)ccc1N1CCC(CNCc2ccc3c(c2)CN(C2CCC(=O)NC2=O)C3=O)CC1 (centres unmarked) [Compound A103] | – | – |
| 157 | 1 | 3 | – | N#Cc1cc(-c2cccc(Cl)c2)cnc1N1CCC(CNCc2ccc3c(c2)CN(C2CCC(=O)NC2=O)C3=O)CC1 (centres unmarked) [Compound A98] | – | – |
| 0 | 10 | 5 | – | O=C1CCC(N2Cc3cc(CNCC4CCN(c5cnc(-c6cccc7ccccc67)nc5)CC4)ccc3C2=O)C(=O)N1 (centres unmarked) [Compound A64] | – | – |
| – | 231 | – | significantly degrade GSPT1 protein | N#Cc1cc(CNCC2CCN(c3ncc(-c4cccc(Cl)c4)cc3C(F)(F)F)CC2)ccc1C(=O)NC1CCC(=O)NC1=O (centres unmarked) [Compound A162] | simultaneously degrade both GSPT1 and c-Myc proteins | simultaneously degrade both GSPT1 and c-Myc proteins |
| 12 | 1.6 | 0 | – | O=C1CCC(N2Cc3cc(CNCC4CCN(c5ncc(-c6cccc(F)c6)cc5C(F)(F)F)CC4)ccc3C2=O)C(=O)N1 (centres unmarked) [Compound A93] | – | – |
| 26 | < 0.2 | 0 | – | O=C1CCC(N2Cc3cc(CNCC4CCN(c5ccc(-c6cccc(Cl)c6)nc5)CC4)ccc3C2=O)C(=O)N1 (centres unmarked) [Compound A71] | – | – |
| 0 | < 0.2 | 0 | – | Cc1cccc(-c2cnc(N3CCC(CNCc4ccc5c(c4)CN(C4CCC(=O)NC4=O)C5=O)CC3)nc2)c1 (centres unmarked) [Compound A68] | – | – |
| 6 | 1.3 | 2 | – | N#Cc1cccc(-c2cnc(N3CCC(CNCc4ccc5c(c4)CN(C4CCC(=O)NC4=O)C5=O)CC3)c(F)c2)c1 (centres unmarked) [Compound A111] | – | – |
| 16 | 63 | 0 | – | O=C1CCC(N2Cc3cc(CNCC4CCN(c5ncc(-c6ccccc6Cl)cc5F)CC4)ccc3C2=O)C(=O)N1 (centres unmarked) [Compound A72] | – | – |
| 2 | < 0.2 | 29 | – | O=C1CCC(N2Cc3cc(CNCC4CCN(c5ncc(-c6cccc(F)c6)cc5F)CC4)ccc3C2=O)C(=O)N1 (centres unmarked) [Compound A108] | – | – |
| 216 | < 0.2 | 23 | – | O=C1CCC(N2Cc3cc(CNCC4CCN(c5ccc(-c6cccc(Cl)c6)cn5)CC4)ccc3C2=O)C(=O)N1 (centres unmarked) [Compound A70] | – | – |
| – | 223 | – | significantly degrade GSPT1 protein | O=C1CCC(N2Cc3cc(CCCC4CCN(c5ncc(-c6cccc(Cl)c6)cc5C(F)(F)F)CC4)ccc3C2=O)C(=O)N1 (centres unmarked) [Compound A134] | simultaneously degrade both GSPT1 and c-Myc proteins | simultaneously degrade both GSPT1 and c-Myc proteins |
| 0 | < 0.2 | 0 | – | O=C1CCC(N2Cc3cc(CNCC4CCN(c5ncc(-c6cccc(Cl)c6)cc5F)CC4)ccc3C2=O)C(=O)N1 (centres unmarked) [Compound A73] | – | – |
| 333 | 55 | 7 | – | CC(NCc1ccc2c(c1)CN(C1CCC(=O)NC1=O)C2=O)C1CCN(c2ncc(-c3cccc(Cl)c3)cc2F)CC1 (centres unmarked) [Compound A105] | – | – |

| Compound | remaining activity at 0.01 µM (c-Myc protein) [%] | IC50 (HL60 cells) [nM] | remaining GSPT1 protein at 0.01 µM (GSPT1 protein) [%] | Degradation of GSPT1 protein in HL60 cells at 100 nM (FIG. 3, in words) (GSPT1 protein) | Degradation of c-Myc protein in HL60 cells at 300 nM (FIG. 2, FIG. 3, in words) (c-Myc protein) | Degradation of GSPT1 protein in HL60 cells at 300 nM (FIG. 2, FIG. 3, in words) (GSPT1 protein) |
| --- | --- | --- | --- | --- | --- | --- |
| O=C1CCC(N2Cc3cc(CNCC4CCN(c5cnc(-c6cccc7ccccc67)cn5)CC4)ccc3C2=O)C(=O)N1 (centres unmarked) [Compound A63] | 19 | 0.2 | 5 | – | – | – |
